Assay results taken from patent publication US10969389B2, “Method to monitor and quantify interphase nuclear envelope rupture events” (INSTITUT CURIE, priority 2016, dated 2021).

Test system: RPE1 cells
Test: Cell death after passing a constriction in micro-channels, with DNA repair inhibited by ATMi
Format: cell-based
Conditions: ATMi 10 μM
Protocol: Micro-channels were prepared as previously described (Heuzé M L et al, 2011, 769, pp. 415-434). Briefly, polydimethylsiloxane (PDMS) (GE Silicones) was used to prepare 7 μm wide and 5 μm high micro-channels with constrictions of varying lengths and widths from a self-made mold. For HeLa cells, larger channels of 12 μm width and 5 μm height were used because of their larger nuclei. Channels with constrictions were incubated with 15 μg/mL of fibronectin for 30 min then washed with PBS at least 3 times and finally incubated with medium (containing drugs if necessary) for at least 5 hours before adding cells. Not that the height inside constriction varied depending on the width: height was 2 μm for 1.5 μm wide constrictions, 3.5 μm for 2 μm wide constrictions, 4 μm for 3 μm and 4 μm wide constrictions, and 5 μm for 5 μm wide constrictions.
siRNA 5′-AAAGCAUGGACGAUCAGGAAG-3′ (SEQ ID NO: 6) was used to deplete CHMP3 (Jimenez Science 2014), SMARTpool for SUN1 and SUN2 (Dharmacon, GE LifeSciences), both 5′-GGUGGUGACGAUCUGGGCU-3′ (SEQ ID NO: 7); and 5′-[…]-3′(SEQ ID NO: 8) to target LMNA. Non-targeting siRNA (Dharmacon, GE Life Technologies) was used as the control. siRNA was transfected with Lipofectamine RNAiMAX (Invitrogen). Cells were transfected with 120 nM siRNA 48 h and again 24 h before the experiment.
For immunofluorescence, secondary antibodies anti-mouse-Alexa488 and anti-Goat-Alexa488 (Jackson ImmunoResearch Laboratories) were used. ATMi (KU-55933, TOCRIS) was used at 10 μM to inhibit DNA repair.
The inventors hypothesized that efficient resealing was responsible for the high survival rate of cells passing through constrictions. The inventors thus quantified the occurrence of cell death after passage through a single constriction in RPE1 cells either depleted for LMNA/C, or for CHMP3. As expected from previous work by others, the inventors found a dramatic increase in death in LMNA/C-depleted cells (FIG. 4A), even inside straight channels, but stronger when cells were passing constrictions where the NE ruptured for longer periods of time.
The inventors therefore hypothesized that the cell death observed upon migration through constrictions in LMNA/C-depleted cells could be caused by a defect in DNA repair combined with a high degree of DNA damage due to prolonged nuclear envelope opening. To test this hypothesis, the inventors inhibited DNA repair using an ATM inhibitor (ATMi, Fig S4E; 22), in control cells and in cells depleted for LMNA/C, or CHMP3.

`O=c1cc(-c2cccc3c2Sc2ccccc2S3)oc(N2CCOCC2)c1` [ATMi, KU-55933] was tested, and the “level of cell death” value (CHMP3-depleted RPE1 cells migrating through constrictions) was “about 30%”, the “level of cell death” value (CHMP3-depleted RPE1 cells that did not migrate through constrictions) was “no effect” and the “level of cell death” value (LMNA/C-depleted RPE1 cells) was “further increased”. For the same compound, the “level of cell death” value (control RPE1 cells) was “no effect”.
